In patent US7176226B2, “Crystal modification II of 2-[2-(1-chloro-cyclopropyl)-3-(2-chlorophenyl)-2-hydroxy-propyl]-2,4-dihydro-3H-1,2,4-triazole-3-thione” (Bayer Cropscience AG, priority 2002, dated 2007):

Tests used:
[1] = thermodynamic stability of the crystal forms; conditions: for thermodynamic stability of the crystal form: at room temperature
[2] = particle density of the crystal forms (Ultrapyknometer, or from single crystal X-ray structural analysis); format: physicochemical; conditions: for Density, calculated from SCA: calculated from single crystal X-ray structural analysis (SCA); for Density, experimental: method SOP 5024, Ultrapyknometer 1000 T
Procedure: A DSC Pyris 1 from Perkin Elmer was used to determine the melting points. The measurements were carried out using a heating rate of 10 K min^−1. In each case, the given melting points refer to the peak maximum under the given conditions. The Raman spectra of the crystal forms were recorded using an RFS 100/S FT-Raman from Bruker (128 scans per measurement). The particle density was determined experimentally according to method SOP 5024 for determining densities using the Ultrapyknometer 1000 T from Quanta-Chrome or theoretically from the single crystal. X-ray structural analysis (SCA). The single crystal X-ray structural analysis was carried out using a P4RA four-cycle diffractometer from Siemens with rotating anode generator, graphite monochromator, scintillation counter and low-temperature unit. Measurement was carried out using molybdenum radiation of a wavelength of 0.71073 (MoKα).

SMILES	thermodynamic stability of the crystal form [1]	Density, calculated from SCA [2]	Density, experimental [2]	temperature below which the crystal form is stable ([1]; pressure of 1013 mbar)
OC(Cc1ccccc1Cl)(Cn1nc[nH]c1=S)C1(Cl)CC1 (stereo not shown) [form I, 2-[2-(1-chlorocyclopropyl)-3-(2-chlorophenyl)-2-hydroxypropyl]-2,4-dihydro-3H-1,2,4-triazole-3-thione, reference compound]	metastable	1.432 Mg/m^3	1.39 Mg/m^3	
OC(Cc1ccccc1Cl)(Cn1nc[nH]c1=S)C1(Cl)CC1 (stereo not shown) [form II, 2-[2-(1-chlorocyclopropyl)-3-(2-chlorophenyl)-2-hydroxypropyl]-2,4-dihydro-3H-1,2,4-triazole-3-thione]	thermodynamically stable	1.471 Mg/m^3	1.43 Mg/m^3	below 90 °C
